The compounds below were run against T1, human estrogen receptor β receptor (hERβ) (Homo sapiens, UniProt Q92731) (assay: Antiestrogenic activity in in vitro bioassay with recombinant CHO cells co-transfected with hERβ, rat oxytocin promoter and luciferase reporter gene). Conditions: potency ratio relative to standard ICI 164.384; inhibition of estradiol-induced luciferase transactivation via hERβ in CHO cells.
T1 construct: expressed in transfected cells; host or cells: Chinese hamster ovary (CHO) cells, stably co-transfected with hERβ, rat oxytocin promoter and luciferase reporter gene
T1 sequence (Q92731 whole entry): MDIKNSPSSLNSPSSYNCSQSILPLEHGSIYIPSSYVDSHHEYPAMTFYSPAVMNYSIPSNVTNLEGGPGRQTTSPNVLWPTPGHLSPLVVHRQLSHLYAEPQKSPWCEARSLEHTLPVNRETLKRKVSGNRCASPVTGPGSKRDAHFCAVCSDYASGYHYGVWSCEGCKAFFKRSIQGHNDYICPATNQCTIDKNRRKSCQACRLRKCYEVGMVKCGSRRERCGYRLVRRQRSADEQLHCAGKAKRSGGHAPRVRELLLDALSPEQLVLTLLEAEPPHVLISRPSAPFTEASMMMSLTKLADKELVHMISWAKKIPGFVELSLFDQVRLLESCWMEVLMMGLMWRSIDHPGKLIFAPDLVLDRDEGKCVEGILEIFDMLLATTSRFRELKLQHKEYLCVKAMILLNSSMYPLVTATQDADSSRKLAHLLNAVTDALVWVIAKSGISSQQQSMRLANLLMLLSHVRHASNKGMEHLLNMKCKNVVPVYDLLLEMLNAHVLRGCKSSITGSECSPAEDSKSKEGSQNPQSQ
Assay type: cell-based
Procedure: The estrogenic and antiestrogenic activity of compounds is determined in an in vitro bioassay with recombinant Chinese hamster ovary (CHO) cells stably co-transfected with the human estrogen receptor α (hERα) or β receptor (hERβ), the rat oxytocin promoter (RO) and the luciferase reporter gene (LUC). The estrogenic activity (potency ratio) of a test compound to stimulate the transactivation of the enzyme luciferase mediated via the estrogen receptors hERα or hERβ is compared with the standard estrogen estradiol. The antiestrogenic activity (potency ratio) of a test compound to inhibit the transactivation of the enzyme luciferase mediated via the estrogen receptors hERα or hERβ by the estrogen estradiol is compared with the standard ICI 164.384 (=(7α, 17β)-N-butyl-3,17-dihydroxy-N-methylestra-1,3,5(10)-triene-7-undecanamide).
With `Oc1ccc2c(c1)Cc1c-2cc2ccc(O)cc2c1-c1ccc(Cl)c(Cl)c1` [Compound 5m] the ERβ antagonism was “++ (>40%: ++)”.
With `Oc1ccc2c(c1)Cc1c-2cc2ccc(O)cc2c1-c1ccc(-c2ccccc2)c(F)c1` [Compound 5s] the ERβ antagonism was “+ (>5% (relative to ICI): +)”.
With `Oc1ccc2c(c1)Cc1c-2cc2ccc(O)cc2c1-c1cccc(Cl)c1` [Compound 5n] the ERβ antagonism was “+ (>5% (relative to ICI): +)”.
`Oc1ccc2c(c1)Cc1c-2cc2ccc(O)cc2c1-c1ccc2ccccc2c1` [Compound 5b] was tested, and the ERβ antagonism was “+ (>5% (relative to ICI): +)”.
For `Oc1ccc2c(c1)Cc1c-2cc2ccc(O)cc2c1-c1ccc(Cl)cc1` [Compound 5a], the ERβ antagonism was “+ (>5% (relative to ICI): +)”.
For `Oc1ccc2c(c1)Cc1c-2cc2ccc(O)cc2c1-c1ccc(-c2ccccc2)cc1` [Compound 5h], the ERβ antagonism was “+ (>5% (relative to ICI): +)”.
With `Cc1cccc(-c2c3c(cc4ccc(O)cc24)-c2ccc(O)cc2C3)c1` [Compound 5p] the ERβ antagonism was “+ (>5% (relative to ICI): +)”.
With `Oc1ccc2c(c1)Cc1c-2cc2ccc(O)cc2c1-c1cccc(C(F)(F)F)c1` [Compound 5d] the ERβ antagonism was “+ (>5% (relative to ICI): +)”.
In the case of `Oc1ccc2c(c1)Cc1c-2cc2ccc(O)cc2c1-c1ccccc1` [Compound 5v], the ERβ antagonism is reported as “+ (>5% (relative to ICI): +)”.
In the case of `Oc1ccc2c(c1)Cc1c-2cc2ccc(O)cc2c1-c1ccc(F)c(Cl)c1` [Compound 5f], the ERβ antagonism is reported as “+ (>5% (relative to ICI): +)”.
In the case of `Oc1ccc2c(c1)Cc1c-2cc2ccc(O)cc2c1-c1ccc(OCCN2CCCCC2)cc1` [Compound 9], the ERβ antagonism is reported as “++ (>40%: ++)”.
With `Oc1ccc2c(c1)Cc1c-2cc2ccc(O)cc2c1-c1ccc(F)cc1` [Compound 5l] the ERβ antagonism was “++ (>40%: ++)”.
For `COc1ccc(-c2c3c(cc4ccc(O)cc24)-c2ccc(O)cc2C3)cc1` [Compound 5k], the ERβ antagonism was “+ (>5% (relative to ICI): +)”.
In the case of `Oc1ccc2c(c1)Cc1c-2cc2ccc(O)cc2c1-c1ccc(C(F)(F)F)cc1` [Compound 5o], the ERβ antagonism is reported as “+ (>5% (relative to ICI): +)”.
With `Oc1ccc2c(c1)Cc1c-2cc2ccc(O)cc2c1-c1ccc(OC(F)(F)F)cc1` [Compound 5r] the ERβ antagonism was “++ (>40%: ++)”.
With `Oc1ccc2c(c1)Cc1c-2cc2ccc(O)cc2c1-c1cccc(F)c1` [Compound 5j] the ERβ antagonism was “+ (>5% (relative to ICI): +)”.
For `Cc1ccc(-c2c3c(cc4ccc(O)cc24)-c2ccc(O)cc2C3)cc1` [Compound 5e], the ERβ antagonism was “++ (>40%: ++)”.
In the case of `COc1cccc(-c2c3c(cc4ccc(O)cc24)-c2ccc(O)cc2C3)c1` [Compound 5c], the ERβ antagonism is reported as “+ (>5% (relative to ICI): +)”.
For `Oc1ccc2c(c1)Cc1c-2cc2ccc(O)cc2c1-c1ccccc1C(F)(F)F` [Compound 5u], the ERβ antagonism was “++ (>40%: ++)”.
For `Oc1ccc2c(c1)Cc1c-2cc2ccc(O)cc2c1-c1ccc2c(c1)OCO2` [Compound 5g], the ERβ antagonism was “+ (>5% (relative to ICI): +)”.
With `CC(C)c1cccc(-c2c3c(cc4ccc(O)cc24)-c2ccc(O)cc2C3)c1` [Compound 5q] the ERβ antagonism was “+ (>5% (relative to ICI): +)”.

Reference: patent publication US7335659B2, “Substituted 10-aryl-11H-benzo[b]fluorenes and 7-aryl-5, 6-dihydro-benzo[a]anthracenes for selective effects on estrogen receptors” (N.V. Organon, priority 2002, dated 2008)
